Assay results reported in paper doi:10.1101/2023.10.03.560722, “Drug Discovery in Low Data Regimes: Leveraging a Computational Pipeline for the Discovery of Novel SARS-CoV-2 Nsp14-MTase Inhibitors” (bioRxiv, 2024).
Where two headings read alike, the source gives them in different places.

Columns and labels:
Assay in all cases: human MTase selectivity panel
Assay type in all cases: biochemical
PRMT1 = PRMT1 (Homo sapiens, UniProt Q99873)
G9a = target: T1, G9a (Homo sapiens, UniProt Q96KQ7)
T1 sequence (Q96KQ7 1-1210): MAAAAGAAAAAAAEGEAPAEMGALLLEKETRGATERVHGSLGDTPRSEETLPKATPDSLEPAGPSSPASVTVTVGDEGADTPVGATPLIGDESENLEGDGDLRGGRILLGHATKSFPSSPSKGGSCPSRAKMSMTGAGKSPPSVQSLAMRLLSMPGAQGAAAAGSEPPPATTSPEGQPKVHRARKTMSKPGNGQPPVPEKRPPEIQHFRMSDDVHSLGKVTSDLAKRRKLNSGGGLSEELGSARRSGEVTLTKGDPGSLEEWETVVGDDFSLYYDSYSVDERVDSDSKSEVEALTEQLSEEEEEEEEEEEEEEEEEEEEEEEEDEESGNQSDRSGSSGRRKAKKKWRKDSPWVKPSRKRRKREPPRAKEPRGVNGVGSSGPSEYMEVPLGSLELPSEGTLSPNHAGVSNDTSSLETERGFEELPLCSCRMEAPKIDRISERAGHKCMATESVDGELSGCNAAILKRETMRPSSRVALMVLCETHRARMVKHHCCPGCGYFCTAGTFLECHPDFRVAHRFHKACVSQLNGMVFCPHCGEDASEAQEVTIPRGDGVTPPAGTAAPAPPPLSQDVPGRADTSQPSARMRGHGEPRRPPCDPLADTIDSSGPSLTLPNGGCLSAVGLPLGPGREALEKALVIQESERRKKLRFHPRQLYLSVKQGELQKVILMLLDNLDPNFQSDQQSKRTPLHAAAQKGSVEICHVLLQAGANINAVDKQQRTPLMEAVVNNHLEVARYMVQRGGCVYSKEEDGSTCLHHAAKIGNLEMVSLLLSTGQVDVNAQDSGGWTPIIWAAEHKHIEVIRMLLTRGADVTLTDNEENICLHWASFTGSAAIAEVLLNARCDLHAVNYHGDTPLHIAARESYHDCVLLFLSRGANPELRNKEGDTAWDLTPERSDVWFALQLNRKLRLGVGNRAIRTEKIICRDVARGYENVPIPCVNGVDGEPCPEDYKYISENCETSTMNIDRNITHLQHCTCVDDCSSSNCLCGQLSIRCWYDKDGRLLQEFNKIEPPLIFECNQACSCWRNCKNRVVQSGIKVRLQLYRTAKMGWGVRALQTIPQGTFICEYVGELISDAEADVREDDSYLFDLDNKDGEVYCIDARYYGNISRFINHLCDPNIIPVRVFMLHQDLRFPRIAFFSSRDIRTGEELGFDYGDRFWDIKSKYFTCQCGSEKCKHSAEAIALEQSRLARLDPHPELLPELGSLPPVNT

DOT1L = DOT1L (Homo sapiens, UniProt Q8TEK3)
Sequence of DOT1L (Q8TEK3 whole entry): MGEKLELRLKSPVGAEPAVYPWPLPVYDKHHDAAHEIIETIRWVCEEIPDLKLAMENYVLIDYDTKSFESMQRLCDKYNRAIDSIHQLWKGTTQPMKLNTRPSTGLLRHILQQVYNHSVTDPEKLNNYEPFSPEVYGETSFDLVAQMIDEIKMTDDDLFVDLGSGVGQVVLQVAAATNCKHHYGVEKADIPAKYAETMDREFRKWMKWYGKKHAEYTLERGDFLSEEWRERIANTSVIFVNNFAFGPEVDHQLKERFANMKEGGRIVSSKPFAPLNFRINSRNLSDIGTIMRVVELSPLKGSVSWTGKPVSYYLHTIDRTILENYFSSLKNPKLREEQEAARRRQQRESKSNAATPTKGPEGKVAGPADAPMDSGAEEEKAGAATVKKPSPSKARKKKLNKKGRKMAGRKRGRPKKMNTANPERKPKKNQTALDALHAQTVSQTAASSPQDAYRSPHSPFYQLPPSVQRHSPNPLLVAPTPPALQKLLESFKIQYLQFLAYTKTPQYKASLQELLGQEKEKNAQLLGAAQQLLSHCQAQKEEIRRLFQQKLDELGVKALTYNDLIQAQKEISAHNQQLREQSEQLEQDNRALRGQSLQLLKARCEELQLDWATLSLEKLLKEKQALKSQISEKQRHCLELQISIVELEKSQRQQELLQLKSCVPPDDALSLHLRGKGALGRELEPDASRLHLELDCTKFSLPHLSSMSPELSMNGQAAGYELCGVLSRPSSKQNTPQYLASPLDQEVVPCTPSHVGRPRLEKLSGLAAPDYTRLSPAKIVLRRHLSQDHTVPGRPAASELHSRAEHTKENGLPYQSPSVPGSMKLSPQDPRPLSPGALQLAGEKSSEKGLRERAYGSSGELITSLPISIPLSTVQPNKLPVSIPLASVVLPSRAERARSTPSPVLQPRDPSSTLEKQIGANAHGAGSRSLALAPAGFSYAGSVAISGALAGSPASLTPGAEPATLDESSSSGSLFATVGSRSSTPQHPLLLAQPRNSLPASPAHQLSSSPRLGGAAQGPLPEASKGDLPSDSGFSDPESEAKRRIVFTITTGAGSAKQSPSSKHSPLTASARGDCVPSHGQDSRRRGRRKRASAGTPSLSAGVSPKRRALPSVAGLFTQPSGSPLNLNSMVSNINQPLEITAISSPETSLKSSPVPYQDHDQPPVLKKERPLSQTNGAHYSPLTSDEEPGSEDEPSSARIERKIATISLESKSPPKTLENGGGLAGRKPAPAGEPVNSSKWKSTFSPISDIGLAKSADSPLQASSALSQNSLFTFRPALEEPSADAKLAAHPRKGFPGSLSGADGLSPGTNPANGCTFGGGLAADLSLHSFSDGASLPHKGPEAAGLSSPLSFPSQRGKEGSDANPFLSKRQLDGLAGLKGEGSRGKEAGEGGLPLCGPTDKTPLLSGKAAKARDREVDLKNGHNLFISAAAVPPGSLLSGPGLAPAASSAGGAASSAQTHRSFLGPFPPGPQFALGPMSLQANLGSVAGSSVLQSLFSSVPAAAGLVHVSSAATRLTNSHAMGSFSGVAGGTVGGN

SETD2 = SETD2 (Homo sapiens, UniProt Q9BYW2)
Sequence of SETD2 (Q9BYW2 whole entry): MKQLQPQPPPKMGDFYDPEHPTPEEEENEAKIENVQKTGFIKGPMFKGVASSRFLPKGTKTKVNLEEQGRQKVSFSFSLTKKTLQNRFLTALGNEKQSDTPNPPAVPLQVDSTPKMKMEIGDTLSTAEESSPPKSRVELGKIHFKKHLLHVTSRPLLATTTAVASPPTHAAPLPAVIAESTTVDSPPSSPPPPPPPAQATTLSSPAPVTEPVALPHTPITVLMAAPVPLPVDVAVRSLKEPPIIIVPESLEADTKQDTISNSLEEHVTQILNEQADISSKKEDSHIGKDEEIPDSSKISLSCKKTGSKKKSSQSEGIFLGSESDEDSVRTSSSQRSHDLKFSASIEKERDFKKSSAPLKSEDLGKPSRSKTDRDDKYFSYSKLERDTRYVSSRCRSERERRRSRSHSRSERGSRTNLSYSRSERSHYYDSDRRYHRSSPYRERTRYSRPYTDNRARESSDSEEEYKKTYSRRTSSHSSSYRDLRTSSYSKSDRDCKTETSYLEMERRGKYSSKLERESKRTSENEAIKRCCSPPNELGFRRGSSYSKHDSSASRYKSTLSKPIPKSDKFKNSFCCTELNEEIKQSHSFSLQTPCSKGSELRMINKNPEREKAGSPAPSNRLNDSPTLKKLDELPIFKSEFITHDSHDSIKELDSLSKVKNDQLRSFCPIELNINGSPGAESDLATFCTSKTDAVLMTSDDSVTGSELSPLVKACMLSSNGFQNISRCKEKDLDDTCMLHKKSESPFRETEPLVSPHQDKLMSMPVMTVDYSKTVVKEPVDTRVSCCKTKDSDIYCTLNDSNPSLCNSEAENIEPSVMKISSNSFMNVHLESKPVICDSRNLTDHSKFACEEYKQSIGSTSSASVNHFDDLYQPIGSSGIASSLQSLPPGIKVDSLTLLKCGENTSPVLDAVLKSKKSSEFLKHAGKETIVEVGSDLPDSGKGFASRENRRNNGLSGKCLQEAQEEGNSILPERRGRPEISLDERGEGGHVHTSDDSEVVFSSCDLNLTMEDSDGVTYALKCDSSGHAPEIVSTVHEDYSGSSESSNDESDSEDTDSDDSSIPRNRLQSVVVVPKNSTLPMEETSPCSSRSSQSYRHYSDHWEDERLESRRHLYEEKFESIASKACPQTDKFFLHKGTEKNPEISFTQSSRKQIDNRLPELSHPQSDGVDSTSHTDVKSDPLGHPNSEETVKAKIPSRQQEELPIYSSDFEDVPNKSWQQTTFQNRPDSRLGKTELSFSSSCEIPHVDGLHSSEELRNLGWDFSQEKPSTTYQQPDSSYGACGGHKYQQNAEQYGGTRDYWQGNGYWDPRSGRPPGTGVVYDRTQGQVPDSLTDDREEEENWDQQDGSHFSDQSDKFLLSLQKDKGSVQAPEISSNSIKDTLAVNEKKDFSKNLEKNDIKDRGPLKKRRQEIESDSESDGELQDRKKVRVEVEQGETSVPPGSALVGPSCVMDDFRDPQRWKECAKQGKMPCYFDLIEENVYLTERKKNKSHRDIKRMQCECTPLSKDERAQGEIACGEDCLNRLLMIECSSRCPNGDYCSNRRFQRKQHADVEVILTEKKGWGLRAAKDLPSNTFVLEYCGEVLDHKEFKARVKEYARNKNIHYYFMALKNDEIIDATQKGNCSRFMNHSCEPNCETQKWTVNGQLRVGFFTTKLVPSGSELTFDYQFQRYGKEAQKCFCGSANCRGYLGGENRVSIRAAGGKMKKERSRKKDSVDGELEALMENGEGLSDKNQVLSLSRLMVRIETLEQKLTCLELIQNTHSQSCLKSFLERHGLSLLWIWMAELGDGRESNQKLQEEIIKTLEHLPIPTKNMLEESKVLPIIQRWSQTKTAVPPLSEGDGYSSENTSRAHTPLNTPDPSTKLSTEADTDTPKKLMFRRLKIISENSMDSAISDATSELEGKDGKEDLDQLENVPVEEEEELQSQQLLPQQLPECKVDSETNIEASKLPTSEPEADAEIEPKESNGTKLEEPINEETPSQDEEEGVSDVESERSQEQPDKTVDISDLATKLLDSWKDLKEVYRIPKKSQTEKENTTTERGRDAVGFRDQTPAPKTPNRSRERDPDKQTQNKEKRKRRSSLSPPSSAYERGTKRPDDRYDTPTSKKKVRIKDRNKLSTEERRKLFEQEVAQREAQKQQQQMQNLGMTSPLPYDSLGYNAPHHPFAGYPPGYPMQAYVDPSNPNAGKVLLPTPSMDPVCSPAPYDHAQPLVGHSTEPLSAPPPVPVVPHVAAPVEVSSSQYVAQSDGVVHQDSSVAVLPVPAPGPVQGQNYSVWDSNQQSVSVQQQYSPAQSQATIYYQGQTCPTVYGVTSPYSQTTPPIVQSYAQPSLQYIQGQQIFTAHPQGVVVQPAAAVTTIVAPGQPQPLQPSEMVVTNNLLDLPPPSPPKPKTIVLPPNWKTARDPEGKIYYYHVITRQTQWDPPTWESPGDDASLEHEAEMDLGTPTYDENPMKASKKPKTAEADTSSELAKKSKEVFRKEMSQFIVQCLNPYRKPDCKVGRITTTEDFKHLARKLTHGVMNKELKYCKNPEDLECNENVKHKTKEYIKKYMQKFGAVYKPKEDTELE

NSD2 = target: T2, NSD2 (Homo sapiens, UniProt O96028)
T2 sequence (O96028 1-1365): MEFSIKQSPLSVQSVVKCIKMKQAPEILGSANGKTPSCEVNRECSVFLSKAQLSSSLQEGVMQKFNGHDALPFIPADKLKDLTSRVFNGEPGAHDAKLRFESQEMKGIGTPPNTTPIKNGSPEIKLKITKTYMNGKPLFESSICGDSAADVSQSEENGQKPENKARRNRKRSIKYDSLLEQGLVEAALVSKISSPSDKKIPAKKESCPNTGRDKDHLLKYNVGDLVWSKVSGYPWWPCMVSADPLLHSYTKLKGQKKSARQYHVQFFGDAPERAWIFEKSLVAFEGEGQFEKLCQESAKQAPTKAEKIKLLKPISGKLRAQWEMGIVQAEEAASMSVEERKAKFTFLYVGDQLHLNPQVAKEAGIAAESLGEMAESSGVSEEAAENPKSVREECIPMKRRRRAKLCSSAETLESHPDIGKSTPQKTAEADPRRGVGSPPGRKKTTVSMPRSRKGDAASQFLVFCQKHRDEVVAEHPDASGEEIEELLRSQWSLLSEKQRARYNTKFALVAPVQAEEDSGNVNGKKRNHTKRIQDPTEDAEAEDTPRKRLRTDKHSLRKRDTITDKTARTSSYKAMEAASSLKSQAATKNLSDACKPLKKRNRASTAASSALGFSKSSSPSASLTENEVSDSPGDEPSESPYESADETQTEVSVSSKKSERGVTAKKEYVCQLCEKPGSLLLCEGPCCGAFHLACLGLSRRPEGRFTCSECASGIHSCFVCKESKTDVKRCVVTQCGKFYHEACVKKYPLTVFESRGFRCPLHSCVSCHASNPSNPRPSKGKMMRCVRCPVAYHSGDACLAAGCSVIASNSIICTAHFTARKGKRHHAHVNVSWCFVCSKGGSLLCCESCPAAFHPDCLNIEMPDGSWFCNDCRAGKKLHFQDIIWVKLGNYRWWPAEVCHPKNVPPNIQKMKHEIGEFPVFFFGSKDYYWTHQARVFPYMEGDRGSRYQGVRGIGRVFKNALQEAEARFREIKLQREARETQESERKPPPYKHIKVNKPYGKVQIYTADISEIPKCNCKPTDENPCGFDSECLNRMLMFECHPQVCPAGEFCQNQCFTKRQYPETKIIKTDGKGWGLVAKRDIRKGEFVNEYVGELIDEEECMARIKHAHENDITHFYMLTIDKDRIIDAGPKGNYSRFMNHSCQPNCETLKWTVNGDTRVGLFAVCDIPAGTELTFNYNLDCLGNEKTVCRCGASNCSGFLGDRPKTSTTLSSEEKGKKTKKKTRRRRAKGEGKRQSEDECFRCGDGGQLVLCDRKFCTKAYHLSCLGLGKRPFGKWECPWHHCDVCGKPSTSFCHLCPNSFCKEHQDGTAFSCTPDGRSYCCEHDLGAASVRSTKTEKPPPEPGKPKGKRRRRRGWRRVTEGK

[1] = average ± SD, read-out: Activity (%) at 10 µM Average
[2] = read-out: Activity (%) at 10 µM Replicate 1
[3] = read-out: Activity (%) at 10 µM Replicate 2
[4] = read-out: Activity (%) at 10 µM Replicate 3

Sequence of PRMT1 (Q99873 whole entry): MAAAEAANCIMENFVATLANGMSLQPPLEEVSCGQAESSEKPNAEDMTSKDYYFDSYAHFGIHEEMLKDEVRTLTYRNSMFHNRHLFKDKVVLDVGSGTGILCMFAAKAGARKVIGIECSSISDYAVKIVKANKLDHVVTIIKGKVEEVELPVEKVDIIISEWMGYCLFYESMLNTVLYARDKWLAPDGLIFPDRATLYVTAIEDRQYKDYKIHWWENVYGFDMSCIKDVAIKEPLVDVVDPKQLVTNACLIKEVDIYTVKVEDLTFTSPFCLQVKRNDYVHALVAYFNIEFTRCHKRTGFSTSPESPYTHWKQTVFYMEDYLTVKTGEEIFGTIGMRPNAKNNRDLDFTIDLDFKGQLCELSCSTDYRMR

Nc1ncnc2c1ncn2[C@@H]1O[C@H](CSCc2ccc(Cl)cc2)[C@@H](O)[C@H]1O [NSC620333]
activity at 10 µM (PRMT1; [1]): 91 ± 6% | activity at 10 µM (PRMT1; [2]): 97% | activity at 10 µM (PRMT1; [3]): 94% | activity at 10 µM (PRMT1; [4]): 84% | activity at 10 µM (G9a; [1]): 89 ± 9% | activity at 10 µM (G9a; [2]): 97% | activity at 10 µM (G9a; [3]): 79% | activity at 10 µM (G9a; [4]): 91% | activity at 10 µM (DOT1L; [1]): 93 ± 9% | activity at 10 µM (DOT1L; [2]): 103% | activity at 10 µM (DOT1L; [3]): 90% | activity at 10 µM (DOT1L; [4]): 86% | activity at 10 µM (SETD2; [1]): 103 ± 4% | activity at 10 µM (SETD2; [2]): 99% | activity at 10 µM (SETD2; [3]): 103% | activity at 10 µM (SETD2; [4]): 107% | activity at 10 µM (NSD2; [1]): 92 ± 7% | activity at 10 µM (NSD2; [2]): 100% | activity at 10 µM (NSD2; [3]): 86% | activity at 10 µM (NSD2; [4]): 90%
